# Key:
# Twist = experiment: Expression of Twist in U87-MG and MDA-MB-231 cells; type: cell-based, human; details: U87-MG and MDA-MB-231, 24 hours
# Procedure: RNA isolation and real-time polymerase chain reaction were performed as described previously (Jung J E, et al. FASEB J. 19, 1296-1298 (2005)). Primer specific for human-derived Bcl-XL, Bcl-2, Twist, and GADPH genes were mixed with QuantiFast SYBR Green PCR master mix, and each gene was amplified using the Applied Biosystems 7300 real-time PCR system to compare the expression level.
# U87-MG cells = experiment: Matrigel invasion assay, U87-MG; type: cell-based, human; details: 24 hours, versus DMSO
# Procedure: The growth factor-reduced Matrigel was diluted with a serum-free culture solution at a 1:3 ratio, transferred to a 24-well plate, and solidified at 37° C. for 5 hours. The cells were placed in a culture solution containing 1% serum and added to the solidified Matrigel, 600 μl of a culture solution containing 10% serum to which fibronectin was added at a concentration of […] was added thereto, and the cells were cultured for 24 hours. Thereafter, the cells were fixed and stained by adding Diffquick solution thereto and then observed under a Leica Application Suite microscope, and images were taken.
# STAT3 = experiment: Western blot analysis of the 13 selected compounds; type: cell-based; details: among the 13 selected compounds
# Procedure: Western blot analysis was performed (Jung J E, et al. FASEB J. 19, 1296-1298 (2005)). The cells were washed two times with PBS and suspended in the lysate (50 mM Tris-HCl, pH 7.4, 350 mM NaCl, 1% Triton X-100, 0.5% Nonidet P-40, 10% glycerol, 0.1% SDS, 1 mM EDTA, 1 mM EGTA, 1 mM Na3VO4, 1 mM PMSF, protease and phosphorylation inhibitor) and the cell membrane and nuclear membrane were crushed to lyse the cells. The insoluble protein fraction was removed by centrifugation, and the supernatant was mixed with SDS electrophoresis buffer and electrophoresis (SDS-PAGE) was performed to detect the protein with the desired antibody and to confirm the protein expression level.
compound,measurement,setting,value
"Clc1ccc(OCc2noc(C(Cl)(Cl)Cl)n2)c(Cl)c1 [ODZ10117, 3-(2,4-dichloro-phenoxymethyl)-5-trichloromethyl-[1,2,4]oxadiazole]",expression of Twist,Twist,significantly decreased
same,cell invasion,U87-MG cells,significantly decreased cell invasion in both the two cell lines
same,STAT3 inhibitory action (Western blot),STAT3,judged to be extremely superior
